How the values were obtained:
Type in all cases: in vitro ADME
dog hepatocytes = assay: In vitro metabolism in hepatocytes; conditions: non-radiolabeled
Source text: (§1) An assessment of the metabolism of non-radiolabeled PF-07038124 was 5 conducted in vitro using mouse, rat, dog, monkey and human hepatocytes. […] The primary routes of metabolism were hydrolysis/oxidation of the oxaborole ring to yield the diol (PF-07086920), glucuronidation of the pyridyl nitrogen, hydroxylation on the propyl group of the phenoxypropyl moiety, and demethylation of the methoxy group (shown below). All metabolites detected in mouse, rat, dog, and monkey hepatocytes were also observed in human hepatocytes.

human hepatocytes = assay: In vitro metabolism in hepatocytes; conditions: non-radiolabeled
Source text: as §1

monkey hepatocytes = assay: In vitro metabolism in hepatocytes; conditions: non-radiolabeled
Source text: as §1

mouse hepatocytes = assay: In vitro metabolism in hepatocytes; conditions: non-radiolabeled
Source text: as §1

rat hepatocytes = assay: In vitro metabolism in hepatocytes; conditions: non-radiolabeled
Source text: as §1

[1] = Stability on incubation in blood (LC-MS/MS); conditions: for concentration of PF-07038124 following incubation / concentration of PF-07086920 following incubation of PF-07038124: 1 hour at 1 μM; for chemical stability in blood: oxidation of the oxaborole ring to diol
Protocol: One of the major metabolic pathways in humans was formation of the oxaborole ring opened molecule, PF-07086920. […] Following incubation for 1 hour at 1 μM in human and rat blood, the concentration of PF-07038124 declined whereas the concentration of PF-07086920 increased in both human and rat blood as determined by liquid chromatography-tandem mass spectrometry. In addition to being a metabolite, PF-07086920 was also determined to be a degradant in the formulations comprising PF-07038124.

Compound | metabolism of PF-07038124 in hepatocytes (dog hepatocytes) | metabolism of PF-07038124 in hepatocytes (human hepatocytes) | metabolism of PF-07038124 in hepatocytes (monkey hepatocytes) | metabolism of PF-07038124 in hepatocytes (mouse hepatocytes) | metabolism of PF-07038124 in hepatocytes (rat hepatocytes) | concentration of PF-07038124 following incubation ([1]; human blood) | chemical stability in blood ([1]; human blood) | concentration of PF-07038124 following incubation ([1]; rat blood) | chemical stability in blood ([1]; rat blood) | concentration of PF-07086920 following incubation of PF-07038124 ([1]; human blood) | concentration of PF-07086920 following incubation of PF-07038124 ([1]; rat blood)
CCCOc1cc(-c2cncc([C@@H]3COB(O)C3)c2)ccc1OC [PF-07038124, (R)-4-(5-(4-methoxy-3-propoxyphenyl)pyridin-3-yl)-1,2-oxaborolan-2-ol] | Moderate to extensive metabolism | Moderate to extensive metabolism | Moderate to extensive metabolism | Moderate to extensive metabolism | Moderate to extensive metabolism | declined | chemically unstable | declined | chemically unstable | – | –
CCCOc1cc(-c2cncc(C(CO)CO)c2)ccc1OC [PF-07086920, 2-(5-(4-methoxy-3-propoxyphenyl)pyridin-3-yl)propane-1,3-diol] | – | – | – | – | – | – | – | – | – | increased | increased
